Values belong to the molecule of their own block, whether it stands above or below them. No end group written: not given here. *: point of attachment. Palmitoyl = CCCCCCCCCCCCCCCC(=O)*
Key:
resting platelets = experiment: Platelet aggregation induced by peptide in resting washed platelets (activation); type: cell-based, human (healthy volunteers); details: for Platelet activation, donor 14 06 13 / Platelet activation, donor 18 06 13 / Platelet activation, donor 22 08 13 DONOR1 / Platelet activation, donor 22 08 13 DONOR2: Fig S10 sheet; for Platelet activation, donor 14 06 13: replicate 14_06_13; for Platelet activation, donor 18 06 13: replicate 18_06_13; for Platelet activation, donor 22 08 13 DONOR1: replicate 22_08_13_DONOR1; for Platelet activation, donor 22 08 13 DONOR2: replicate 22_08_13_DONOR2
How it was run: (§1)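 Aggregation was read by optical density at 37°C under 1100 rpm stirring. Samples were 3x10^5/μl washed human platelets, rested 45 min and supplemented with 1.8 mM calcium chloride. Peptide went in at 2 min, followed 6 min later by TRAP at an experiment-dependent concentration, with 7 min further recording.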

vinculin [1] = target: T1, vinculin (Homo sapiens, UniProt P18206); experiment: Surface plasmon resonance, peptides injected over immobilised vinculin; type: binding; details: SPR, CM5 chip, serial peptide injections at 1 mM; rank order
T1 sequence (P18206 1-1066 isoform P18206-2): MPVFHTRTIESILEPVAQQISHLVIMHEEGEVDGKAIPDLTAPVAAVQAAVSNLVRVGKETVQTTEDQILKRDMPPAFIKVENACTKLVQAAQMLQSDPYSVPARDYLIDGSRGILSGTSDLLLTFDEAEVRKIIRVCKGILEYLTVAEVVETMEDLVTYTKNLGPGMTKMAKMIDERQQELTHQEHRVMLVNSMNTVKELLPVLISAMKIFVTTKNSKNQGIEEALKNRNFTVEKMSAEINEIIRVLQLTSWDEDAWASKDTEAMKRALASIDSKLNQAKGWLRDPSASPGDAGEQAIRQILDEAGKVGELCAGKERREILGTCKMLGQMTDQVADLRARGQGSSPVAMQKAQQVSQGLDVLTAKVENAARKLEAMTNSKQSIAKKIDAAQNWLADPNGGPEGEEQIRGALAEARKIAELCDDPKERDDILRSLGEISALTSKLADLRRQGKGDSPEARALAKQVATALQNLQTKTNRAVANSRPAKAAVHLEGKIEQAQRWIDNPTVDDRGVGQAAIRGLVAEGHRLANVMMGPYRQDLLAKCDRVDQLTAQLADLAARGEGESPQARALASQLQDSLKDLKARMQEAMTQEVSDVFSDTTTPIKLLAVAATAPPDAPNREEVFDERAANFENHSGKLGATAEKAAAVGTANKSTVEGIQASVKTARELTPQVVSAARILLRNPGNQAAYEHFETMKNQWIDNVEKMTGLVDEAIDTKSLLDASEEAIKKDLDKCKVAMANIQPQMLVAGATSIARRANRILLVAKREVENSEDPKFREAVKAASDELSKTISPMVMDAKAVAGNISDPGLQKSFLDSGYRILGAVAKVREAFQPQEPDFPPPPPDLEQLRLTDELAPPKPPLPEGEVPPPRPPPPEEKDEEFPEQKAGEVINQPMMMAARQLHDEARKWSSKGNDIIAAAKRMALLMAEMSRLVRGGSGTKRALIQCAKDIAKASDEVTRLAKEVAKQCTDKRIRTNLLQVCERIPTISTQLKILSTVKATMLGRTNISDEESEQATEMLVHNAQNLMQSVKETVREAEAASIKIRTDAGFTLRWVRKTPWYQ
Procedure: The SPR experiments were performed using a Biacore T200 system (GE Healthcare), and Series S CM5 or SA chips with 4 flow cells each.
Lyophilized vinculin was dissolved in flow buffer to a concentration of 1 mg/ml and covalently coupled onto the carboxymethylated dextran matrix of CM5 sensor chips using standard amine coupling. The flow buffer contained 10 mM HEPES, 150 mM NaCl, 3 mM EDTA, 0.05% surfactant P20. The chip was activated with an injection of 70 μl of a mixture of 0.05 M EDC and 0.2 M NHS, followed by the injection of approximately 70 μl of 10 μg/ml vinculin in 10 mM sodium acetate, pH 5.0 in one flow cell to yield a response of 7200 RU. Remaining reactive groups in the channel were blocked with an injection of 100 μl ethanolamine. Binding experiments were performed by injecting peptides for 120 s at a flow rate of 20 μl/min, at a concentration of 1 mM in the flow buffer over the chip surface to monitor association kinetics, followed by buffer flow for 120 s to measure dissociation kinetics. Between experiments, the surface was regenerated by injecting a 60 second pulse of 10 mM glycine pH 2.

vinculin [2] = target: vinculin (UniProt P18206)
[3] = type: physicochemical
Procedure: Peptides were stored in powder form at -80°C. Prior to use, they were left at room temperature for one hour. They were then mixed with a specific volume of deionised water to bring them to a 1mM concentration and were then aliquoted and frozen at -80°C. They were thawed a single time before use and discarded after an experiment. Peptides which were not soluble in deionised water (pal-APTNEFYA, pal-LEEDDEEGE, pal-TNITYRGT and pal-KLLITIHDRKE) were dissolved in a 10% DMSO and 90% deionised water solution (leading to a final concentration of 0.2% DMSO when combined with platelets, see below). These peptides were further diluted during platelet aggregations.

TRAP-activated platelets = experiment: Inhibition of TRAP-induced platelet aggregation after pre-incubation with peptide; type: cell-based, human (healthy volunteers)
How it was run: as §1

Syntenin-1 = Syntenin-1 (UniProt O00560)
Chain of Syntenin-1 (O00560 whole entry): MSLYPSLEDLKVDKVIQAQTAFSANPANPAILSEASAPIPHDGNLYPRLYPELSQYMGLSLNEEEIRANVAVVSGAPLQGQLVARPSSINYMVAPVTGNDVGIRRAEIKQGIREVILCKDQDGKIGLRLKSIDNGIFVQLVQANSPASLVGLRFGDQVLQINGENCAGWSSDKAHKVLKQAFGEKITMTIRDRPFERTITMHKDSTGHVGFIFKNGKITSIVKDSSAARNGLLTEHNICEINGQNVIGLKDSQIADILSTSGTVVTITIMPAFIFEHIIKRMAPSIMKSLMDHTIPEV

Molecule: ACTN1_VBS-tat: ACTN1 vinculin-binding peptide with the tat peptide at the C-terminus (WEQLLTTIARTINEVENQIGRKKRRQRRRPPQ)
Platelet activation, donor 14 06 13 (resting platelets; peptide 50 µM, unit assumed): 45%
Platelet activation, donor 18 06 13 (resting platelets; peptide 50 µM, unit assumed): 11%
Platelet activation, donor 22 08 13 DONOR1 (resting platelets; peptide 50 µM, unit assumed): 32%
Platelet activation, donor 22 08 13 DONOR2 (resting platelets; peptide 50 µM, unit assumed): 4%
Platelet activating effect compared with N-terminal tat attachment (resting platelets; S10 Fig, peptide 50 µM, in words): weaker platelet activating effect
Relative binding affinity to immobilised vinculin (vinculin [1]): tat-ACTN1_VBS > TLN1_VBS-tat > ACTN1_VBS-tat > ACTN1_VBS

Molecule: ACTN1_VBS: ACTN1_VBS peptide lacking the tat (WEQLLTTIARTINEVENQI)
Platelet activation, donor 14 06 13 (resting platelets; peptide 50 µM, unit assumed): 35%
Platelet activation, donor 18 06 13 (resting platelets; peptide 50 µM, unit assumed): 11%
Platelet activation, donor 22 08 13 DONOR1 (resting platelets; peptide 50 µM, unit assumed): 7%
Platelet activation, donor 22 08 13 DONOR2 (resting platelets; peptide 50 µM, unit assumed): 11%
Relative binding affinity to immobilised vinculin (vinculin [1]): tat-ACTN1_VBS > TLN1_VBS-tat > ACTN1_VBS-tat > ACTN1_VBS

Molecule: tat-ACTN1_VBS (peptide)
Activation: platelet aggregation induced in resting platelets after 6 minutes incubation with peptides (50μM) (vinculin [2]): 66

Solubility in deionised water [3]: not soluble
Molecule: pal-KLLITIHDRKE-(NH2) [pal-ITGB3_JM, N-terminally palmitylated ITGB3 juxtamembrane peptide]
Activation (resting platelets; platelet aggregation in resting platelets after 6 minutes incubation with peptide, pal-peptides 20 μM, tat-peptides 50 μM, optical density, aggregometer, mean, n>=3, unit assumed): 4%
Aggregation before TRAP activation, donor d (resting platelets; replicate donor d, pal 20 μM, tat 50 μM): 4
Aggregation before TRAP activation, donor f (resting platelets; replicate donor f, pal 20 μM, tat 50 μM): 3
Aggregation before TRAP activation, donor g (resting platelets; replicate donor g, pal 20 μM, tat 50 μM): 5
Platelet aggregation remaining after TRAP (low = inhibition) (TRAP-activated platelets; platelet aggregation induced by 4 μM TRAP in platelets pre-incubated with peptide (low value = inhibition), pal-peptides 20 μM, tat-peptides 50 μM, mean, n>=3): 73
Aggregation after TRAP activation, donor d (TRAP-activated platelets; replicate donor d, TRAP 4 μM, pal 20 μM, tat 50 μM): 76
Aggregation after TRAP activation, donor f (TRAP-activated platelets; replicate donor f, TRAP 4 μM, pal 20 μM, tat 50 μM): 77
Aggregation after TRAP activation, donor g (TRAP-activated platelets; replicate donor g, TRAP 4 μM, pal 20 μM, tat 50 μM): 68

Inhibition: platelet aggregation induced by 4μM TRAP in platelets pre-incubated with peptide (20μM) (Syntenin-1): 34
Molecule: Palmitoyl-APTNEFYA [pal-SDC4_tail]
